Measurements published in patent publication US20220112233A1, “METHOD FOR PRODUCING PEPTIDE COMPOUND, PROTECTIVE GROUP-FORMING REAGENT, AND CONDENSED POLYCYCLIC AROMATIC HYDROCARBON COMPOUND” (FUJIFILM CORPORATION, priority 2019, published 2022).

Test: Solution stability of N-protected and C-protected amino acid
Assay type: physicochemical
Conditions: N-protected and C-protected amino acid (Fmoc-Leu condensed with the listed compound) in tetrahydrofuran and acetic acid, room temperature, three days; amount remaining (survival rate)
Procedure: The obtained N-protected and C-protected amino acid (10 mg) and 2,6-di-tert-butyl-4-methylphenol (internal standard: 8 mg) were dissolved in a tetrahydrofuran solution (20 mL) and acetic acid (2 mL), respectively, and after allowing time to pass at room temperature for three days, the amount of remaining N-protected and C-protected amino acid was determined and evaluated based on the following standard.
Regarding the evaluation of the solution stability, a case of “B” or higher was regarded as acceptable.
It can be said that, as the solution stability is higher, peptide stability is high, side reactions can be suppressed, and yield is excellent.
—Evaluation Standard— • “A”: survival rate was 99% or more. • “B”: survival rate was 97% or more and less than 99%. • “C”: survival rate was 95% or more and less than 97%. • “D”: survival rate was less than 95%.

Compound | Solution stability
CCCCCCCCCCCCCCCCCCCCCCOc1ccc(C(O)c2ccc(OCCCCCCCCCCCCCCCCCCCCCC)cc2)cc1 [Comparative compound (1-1)] | C (survival rate was 95% or more and less than 97%)
CCCCCCCCCCCCCCCCCCCCCCOc1cc(COc2ccc3cc(C(O)c4ccc(OC)cc4)ccc3c2)cc(OCCCCCCCCCCCCCCCCCCCCCC)c1 (centres unmarked) [Compound (1-2)] | A (survival rate was 99% or more)
